Test results from PMC11606874, “Structural and in vitro anticancer properties of the kaempferol–lactoferrin complex” (Food Science & Nutrition, 2024).

Biological target: T1, lactoferrin (Bos taurus, UniProt P24627)
T1 construct: gene LTF
Assay: intrinsic fluorescence quenching titration (Stern-Volmer and double-logarithmic Ka at […] K), synchronous fluorescence, UV-vis difference spectra
Type: binding
Conditions: read-out: K a (L mol^-1) (converted)

T1 sequence (P24627 20-708): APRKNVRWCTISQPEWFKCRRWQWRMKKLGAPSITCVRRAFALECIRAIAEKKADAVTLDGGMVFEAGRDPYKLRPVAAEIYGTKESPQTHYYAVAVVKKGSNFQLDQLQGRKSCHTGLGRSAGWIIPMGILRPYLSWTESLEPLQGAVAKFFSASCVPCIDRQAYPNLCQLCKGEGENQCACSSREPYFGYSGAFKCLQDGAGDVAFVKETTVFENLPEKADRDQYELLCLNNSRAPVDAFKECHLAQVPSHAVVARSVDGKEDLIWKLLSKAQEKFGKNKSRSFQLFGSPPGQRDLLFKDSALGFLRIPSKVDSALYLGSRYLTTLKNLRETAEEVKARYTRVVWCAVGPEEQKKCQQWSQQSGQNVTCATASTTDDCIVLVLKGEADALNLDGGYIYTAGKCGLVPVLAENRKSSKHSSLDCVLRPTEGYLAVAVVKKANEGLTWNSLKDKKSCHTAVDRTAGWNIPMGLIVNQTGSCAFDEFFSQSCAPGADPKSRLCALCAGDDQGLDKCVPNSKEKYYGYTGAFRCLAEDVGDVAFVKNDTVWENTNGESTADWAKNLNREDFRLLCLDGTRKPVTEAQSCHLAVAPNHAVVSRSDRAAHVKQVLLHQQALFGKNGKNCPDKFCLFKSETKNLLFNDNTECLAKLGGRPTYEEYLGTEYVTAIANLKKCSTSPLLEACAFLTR

- Kd: 43.3 µM
Compound: O=c1c(O)c(-c2ccc(O)cc2)oc2cc(O)cc(O)c12 [KAE, kaempferol]
